Experimental data reported in patent publication EP2681209B1, “COMPOUNDS AND METHODS FOR THE TREATMENT OF PAIN AND OTHER DISORDERS” (Aquilus Pharmaceuticals, Inc, priority 2011, dated 2012).

Key:
[1] = In-vitro microsomal stability in mouse microsomes; type: in vitro ADME; details: 1 µM compound, mouse microsomes 0.3 mg/mL, at T = 60 minutes; for %Mean Remaining Parent without NADPH (%): control omitting NADPH
Description: Human and mouse microsomal stability was determined for select compounds following the method of Houston (Houston, JB; Biochem. Pharmacol. 47, (1994),1469).
1 µM concentration of compound and seperate human and mouse microsomes (0.3 mg/mL, BD bioscience) were used in the in-vitro assay. To ensure proper energy supply for microsomal degradation of compound, an energy regenerating system comprised of 100 mM potassium phosphate, 2mM NADPH, 3mM MgCl2, pH = 7.4. and the microsomal protein is added to each sample and the resulting suspension is then incubated in duplicate for 60 min at 37° C. in a rotary shaker. A control is run for each test agent in duplicate omitting NADPH to detect NADPH-free degradation. At T=0 and T= 60 min., an aliquot is removed from each experimental and control reaction and then mixed with an equal volume of ice-cold Stop Solution (consisting of 0.3% acetic acid in acetonitrile containing haloperidol and diclofenac as internal standards). Stopped reactions are then incubated for at least ten minutes at -20 °C, and an additional volume of water is then be added. The samples are then centrifuged to remove precipitated protein, and the supernatants are then analyzed by LC-MS/MS to determine the percentage of compound remaining. The LC-MS/MS system used was an Agilent 6410 mass spectrometer coupled with an Agilent 1200 HPLC and a CTC PAL chilled autosampler, all controlled by MassHunter software (Agilent), or an ABI2000 mass spectrometer coupled with an Agilent 1100 HPLC and a CTC PAL chilled autosampler, all controlled by Analyst software (ABI). After separation on a C18 reverse phase HPLC column (Agilent, Waters, or equivalent) using an acetonitrile-water gradient system, peaks were analyzed by mass spectrometry (MS) using ESI ionization in MRM mode.

[2] = system: FVB male mice; test: Spinal nerve ligation (SNL) mouse model of neuropathic pain, intrathecal administration, von Frey tactile allodynia test; type: in vivo; details: for 50% paw withdrawal threshold, Mean, Day 0 Postoperative Baseline: group baseline after SNL injury, before first injection; for 50% paw withdrawal threshold, Mean, Day 0 Postoperative Baseline / 50% paw withdrawal threshold, Mean, Day(-2) Pre-operative Baseline: von Frey; for 50% paw withdrawal threshold, Mean, Day(-2) Pre-operative Baseline: group baseline prior to SNL injury and before any treatment; for 50% paw withdrawal threshold, Mean, Day 5 / 50% paw withdrawal threshold, Mean, Day 7 / 50% paw withdrawal threshold, Mean, Day 1: i.t. 10 µl/mouse daily injections day 1-6; for 50% paw withdrawal threshold, Mean, Day 1: testing 2hr after first i.t. injection
Description: To measure the neuropathic pain inhibiting affects of the MMP inhibitors of the present invention, the spinal nerve ligation (SNL) mouse model was run on a select number of compounds. This model which began with the work of Bennet and coworkers (Bennet, G.J. et al. Pain, 33, (1988), 87-107) and was optimized by Kim and Chung (Kim, S.H.; Chung, J.M. Pain, 50, (1992), 355-363) entails first, under magnification, the removal of one-third of the transverse process and then identifying and then dissecting free the L5 spinal nerve from the adjacent L4 spinal nerve in the mouse. The L5 spinal nerve is then tightly ligated using 6.0 silk suture. The nerve injury leads to hyperalgesia which manifests itself by enhanced responses to mechanical, heat and/or cooling stimuli. In this case, mechanical hyperalgesia is tested via Von Frey monofilaments in which filaments of varying thicknesses and bending force are individually applied to the plantar surface of the foot of the mouse. The threshold force necessary for paw withdrawal decreases dramatically after the nerve surgery. Potent pain inhibitors will reverse this affect resulting in greater force needing to be applied to cause the rodent paw to withdrawal.
Following preoperative baseline (Day -2) paw threshold measurement, FVB male mice were subjected to SNL injury (Day -1). The next day (Day 0) after SNL surgery, the animals were tested for post-operative baseline threshold measurements for mechanical allodynia; and the animals were then randomly assigned to one of 3 treatment groups (see Table 3). Over the course of the study, paw withdrawal threshold of these animals was measured in response to mechanical stimulation using the von Frey Monofilament Test.
To avoid systemic effects of the MMP inhibitors, the MMP inhibitors of the present invention were delivered into the cerebral spinal fluid (CSF) space around lumbosacral spinal cord via intrathecal (i.t.) administration, with the idea of targeting MMPs in the DRG, spinal cord, and spinal CSF. Intrathecal MMP inhibitor administration could then target not only spinal cord cells but also DRG cells. Each intrathecal (i.t.) injection was carried out according to the technique of Hylden and Wilcox (Hylden JL, Wilcox GL. Eur. J Pharmacol., 67, (1980), 313-6) 5.2 mg of each of the MMP inhibitors were first dissolved in 140 microliters of DMSO and then put into 1260 microliters of 0.5% hydroxypropyl cellulose (HPC) in water to make a fine suspension composed of compound in 10%DMSO-0.5% hydroxypropyl cellulose. 10 microliters of the mixture was injected into the intrathecal space of male FVB mice (weighing 22-25 grams each and obtained from the Jackson Laboratories, Bar Harbor, Me), by lumbar puncture in a volume of 10 µl/mouse using a Hamilton microsyringe via a 30 gauge needle inserted between lumbar vertebrae 5 and 6. In brief, each animal was held firmly by the pelvic girdle in one hand, while the needle was inserted into the tissue on the right side of the L5 or L6 spinous process. The needle was moved forward and slipped into the groove between the spinous process and transverse process and gently moved forward to the intervertebral space at ∼10° angle. As the needle was inserted (∼0.5 cm) within the vertebral column a tail flick was evident, and the solution was then injected. Table 3. Animal i.t. Treatment Groups & Compounds Tested
Tactile Allodynia Test. Mechanical allodynia was measured using the calibrated von Frey filaments (Semmes-Weinstein monofilaments; Stoelting, Wood Dale, IL, U.S.A.). The plantar surface of the left injured paw of each animal was tested as described by Chaplan et al. (Journal of Neuroscience Methods, 53, (1994), 55-63). […]

Compound | %Mean Remaining Parent with NADPH (%) [1] [%] | %Mean Remaining Parent without NADPH (%) [1] [%] | 50% paw withdrawal threshold, Mean, Day 0 Postoperative Baseline [2] [g] | 50% paw withdrawal threshold, Mean, Day(-2) Pre-operative Baseline [2] [g] | 50% paw withdrawal threshold, Mean, Day 5 [2] [g] | 50% paw withdrawal threshold, Mean, Day 7 [2] [g] | 50% paw withdrawal threshold, Mean, Day 1 [2] [g] | reversal of allodynia ([2]; i.t. administration, as compared to vehicle and compound #5)
[2H]C([2H])([2H])c1ccc(C#Cc2ccc(S(=O)(=O)N[C@H](Cc3c[nH]c4ccccc34)C(=O)O)s2)cc1 [Compound 10, (R)-3-(1H-Indol-3-yl)-2-[5-(4-trideuteromethyl-phenylethynyl)-thiophene-2-sulfonylamino]-propionic acid-(D3, 98%)] | 85 | 91 | 0.077 | 1.268 | 0.320 | 1.024 | 0.321 | almost complete reversal of allodynia
Cc1ccc(C#Cc2ccc(S(=O)(=O)N[C@H](Cc3c[nH]c4ccccc34)C(=O)O)s2)cc1 [Compound 5, (R)-3-(1H-Indol-3-yl)-2-(5-p-tolylethynyl-thiophene-2-sulfonylamino)-propionic acid] | 83 | 88 | 0.050 | 1.265 | 0.079 | 0.190 | 0.098 | –
